Assay results published in publication PMC5442318, “Hundreds of dual-stage antimalarial molecules discovered by a functional gametocyte screen” (Nature Communications, 2017).
Where two headings read alike, the source gives them in different places.

Assays:
[1] = test system: P. falciparum female gametes; test: Pf FGAA with compounds added 30 min after triggering gametocyte activation (gamete-targeting); type: cell-based, Plasmodium falciparum NF54; settings: 0h incubation time
[2] = test system: P. falciparum stage V female gametocytes; test: P. falciparum female gametocyte activation assay (Pf FGAA), 24 h or 48 h preincubation, Pfs25 expression readout; type: cell-based, Plasmodium falciparum NF54; settings: for Pf FGAA classification: SLOW / FAST / GAMETE from activity at 48h, 24h, 0h incubation
In short: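 Female activation, triggered by xanthurenic acid and cooling, was scored by imaging Cy3-labelled anti-Pfs25 female gametes after 24 h at 26 °C. Beforehand, purified NF54 stage V gametocytes had been incubated with compound for either 24 h or 48 h (37 °C, 3% O2). Values are pIC50 from full-curve regression.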

HepG2 cells = test: HepG2 cytotoxicity assay; type: cell-based
In short: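 Cell viability is measured by CellTiter-Glo luminescence. Signal is developed at room temperature and read 10 min after adding the reagent, with plates and reagent first equilibrated for 30 min.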

[3] = test system: P. falciparum stages IV–V gametocytes; test: Gametocytocidal ATP-depletion assay (gametocyte ATP bioluminescence); type: cell-based, Plasmodium falciparum; settings: for inhibition at 2 µM: Plasmodium falciparum, mean
In short: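 Read-out is luciferase luminescence of parasite ATP (BacTiter-Glo), standing in for viability. Double-purified mature stage IV–V gametocytes, 12,500 per well, were exposed 48 h at 37 °C in low-O2 gas; screening concentration 2 μM.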

[4] = test system: P. falciparum asexual blood stages; settings: cited from earlier work; for IC50: read-out: Pf Asexual blood stages XC50
[5] = 24h incubation time, read-out: Pf FGAA IC50 (µM) 24h
[6] = P. falciparum female gametocytes, mean, read-out: Gametocytes mean Pf FGAA IC50
[7] = TCAMS asexual blood stage data, ref 1 (Gamo, F. J. et al., Nature 465, 305-310, 2010)
[8] = TCAMS data, ref 1 (Gamo, F. J. et al., Nature 465, 305-310, 2010)
[9] = Plasmodium falciparum, 24h incubation time, read-out: Pf FGAA IC50 (µM) 24h
[10] = mean, read-out: Gametocytes mean Pf FGAA IC50
[11] = TCAMS data, ref 1 (Gamo et al., 2010)

Compound | IC50 [1] | IC50 [2, 5] | IC50 [2, 6] | Pf FGAA classification [2] | HepG2 cells mean TOX50 (HepG2 cells; HepG2 cells) | Gametocytes mean ATP inhibition at 2µM [3] | IC50 [4, 7] | Pf Asexual stages XC50 [4, 8] | IC50 ([1]; Plasmodium falciparum) | IC50 [2, 9] | IC50 ([2]; Plasmodium falciparum, P. falciparum female gametocytes, mean, read-out: Gametocytes mean Pf FGAA IC50) | Selectivity ratio (HepG2 cells; HepG2 TOX50 versus Pf FGAA IC50) | inhibition at 2 µM [3] | IC50 [2, 10] | HepG2 cells mean TOX50 (HepG2 cells) | Gametocytes mean ATP inhibition at 2µM (%) [3] | IC50 [4, 11] | IC50 ([2]; Plasmodium falciparum, mean, read-out: Gametocytes mean Pf FGAA IC50) | Selectivity ratio (HepG2 cells; HepG2 TOX50 vs Pf FGAA IC50)
FC(F)(F)c1ccc2[nH]c(-c3ccc(-c4ccc(CNCCN5CCNCC5)cc4)cc3)nc2c1.O=C(O)C(F)(F)F [TCMDC-132865] | > 20 µM | > 20 µM | 1.41 µM | SLOW | 16.43 µM | -10.30% | 1120 nM | 1120 nM |  |  |  |  |  |  |  |  |  |  | 
Cc1cccc2nc(-c3ccc(-c4ccc(CNCCN5CCNCC5)cc4)s3)[nH]c12.O=C(O)C(F)(F)F [TCMDC-132870] | > 20 µM | 18.8 µM | 1.53 µM | SLOW | 14.29 µM | 8.76% | 1150 nM | 1150 nM |  |  |  |  |  |  |  |  |  |  | 
NC1CCN(CCc2ccc(NS(=O)(=O)c3ccc(-c4ccccc4)cc3)cc2)CC1 [TCMDC-134085] |  |  |  | FAST | 7.17 µM |  | 1020 nM | 1020 nM | > 20 µM | 1.98 µM | 0.75 µM | 9.58 | -6.2% |  |  |  |  |  | 
Cc1ccc(C(C(=O)Nc2ccc(N3CCNCC3)c(Cl)c2)c2ccccc2)cc1 (stereo not drawn) [TCMDC-134292] | > 20 µM | 17 µM | 0.66 µM | SLOW | 11.89 µM | 19.42% | 840 nM | 840 nM |  |  |  |  |  |  |  |  |  |  | 
COc1cccc(-c2csc(C(=O)NCC3CCN(Cc4ccc(C(C)C)cc4)C3)c2)c1.O=C(O)C(F)(F)F (stereo not drawn) [TCMDC-134439] | > 20 µM | 3.22 µM | 1.37 µM | SLOW | 11.51 µM | 2.89% | 1390 nM | 1390 nM |  |  |  |  |  |  |  |  |  |  | 
O=C(NCC1CCN(Cc2cccc(C(F)(F)F)c2)C1)c1cc(-c2cccc(C(F)(F)F)c2)cs1.O=C(O)C(F)(F)F (stereo not drawn) [TCMDC-134483] | > 20 µM | 2.45 µM | 1.65 µM | SLOW | 16.22 µM | -4.13% | 610 nM | 610 nM |  |  |  |  |  |  |  |  |  |  | 
O=C(NCC1CCN(Cc2cccc(C(F)(F)F)c2)C1)c1cc(-c2cccc(F)c2)cs1.O=C(O)C(F)(F)F (stereo not drawn) [TCMDC-134484] | > 20 µM | 2.82 µM | 2.26 µM | SLOW | 18.87 µM | -3.56% | 1180 nM | 1180 nM |  |  |  |  |  |  |  |  |  |  | 
O=C(NCC1CCN(Cc2cccc(C(F)(F)F)c2)C1)c1cc(-c2cccc(Cl)c2)cs1.O=C(O)C(F)(F)F (stereo not drawn) [TCMDC-134485] | > 20 µM | 12 µM | 0.89 µM | SLOW | 16.03 µM | 2.16% | 800 nM | 800 nM |  |  |  |  |  |  |  |  |  |  | 
CN(C)c1ccc(-c2csc(C(=O)NCC3CCN(Cc4cccc(C(F)(F)F)c4)C3)c2)cc1.O=C(O)C(F)(F)F (stereo not drawn) [TCMDC-134486] | > 20 µM | 2.56 µM | 1.56 µM | SLOW | 8.18 µM | -14.11% | 840 nM | 840 nM |  |  |  |  |  |  |  |  |  |  | 
N#Cc1ccc(-c2ccc(C(=O)NCC3CCN(CCN4CCC(c5ccc6c(c5OCC(N)=O)CCCC6)CC4)CC3)cc2)cc1 [TCMDC-134563] | > 20 µM | 5.88 µM | 1.26 µM | SLOW | 6.17 µM | -20.83% | 440 nM | 440 nM |  |  |  |  |  |  |  |  |  |  | 
O=C(O)C(F)(F)F.O=c1[nH]ccc2nc(N[C@@H]3CCNC3)nc(Nc3cc(Cl)cc(Cl)c3)c12 [TCMDC-135052] | 15.1 µM | 2.57 µM | 0.74 µM | SLOW | 4.79 µM | -43.72% | 740 nM | 740 nM |  |  |  |  |  |  |  |  |  |  | 
CC(C)(C)OC(=O)NCc1ccc(Nc2nnc(-c3cccc(C(=O)NCc4cc(C(F)(F)F)cc(C(F)(F)F)c4)c3)o2)cc1 [TCMDC-135229] | > 20 µM | 2.41 µM | 3.14 µM | SLOW | 21.43 µM | -6.34% | 870 nM | 870 nM |  |  |  |  |  |  |  |  |  |  | 
CN1CCN(Cc2ccc(-c3cc4c(Nc5ccc(OCc6cccc(F)c6)c(Cl)c5)ncnc4s3)[nH]2)CC1 [TCMDC-135458] | > 20 µM |  | 2.41 µM | SLOW | 10.98 µM | -48.07% | 770 nM | 770 nM |  |  |  |  |  |  |  |  |  |  | 
CC(C)N1CCN(C(CN2CCN(CCCOc3ccccc3-c3ccccc3)CC2)c2ccc(F)cc2)CC1.Cl (stereo not drawn) [TCMDC-135499] | 12.3 µM | 5.74 µM | 1.41 µM | SLOW | 4.32 µM | -15.92% | 790 nM | 790 nM |  |  |  |  |  |  |  |  |  |  | 
CCn1c(-c2nonc2N)nc2c(-c3cccc(NC(=O)Nc4ccc(Cl)cc4)c3)ncc(OCCCN)c21.O=C(O)C(F)(F)F [TCMDC-136152] | > 20 µM | 6.65 µM |  | SLOW |  |  |  | 830 nM |  |  |  |  |  | 1.7 µM | 10.96 µM | -4.09% | 830 nM |  | 
CCn1c(-c2nonc2N)nc2c(-c3cccc(NC(=O)Nc4ccc5c(c4)CCC5)c3)ncc(OCCCN)c21.O=C(O)C(F)(F)F [TCMDC-136191] | > 20 µM | 6.46 µM |  | SLOW |  |  |  | 780 nM |  |  |  |  |  | 1.03 µM | 7.42 µM | -19.55% | 780 nM |  | 
CN(C)CCCNCc1cn(S(=O)(=O)c2ccccc2Cl)c2ccccc12 [TCMDC-136302] |  |  |  | FAST |  |  |  | 350 nM | > 20 µM | 0.51 µM |  |  | 3.27% |  | 11.78 µM |  | 1070 nM | 1.84 µM | 6.39
Cc1noc(C)c1-c1ccc2c(Nc3nccc4ccccc34)c(C(N)=O)cnc2c1 [TCMDC-136456] | > 20 µM | 3.33 µM |  | SLOW |  |  |  | 890 nM |  |  |  |  |  | 1.54 µM | 3.85 µM | 0.55% | 890 nM |  | 
Cc1cc(C(F)(F)F)cc(-n2ncc(-c3ccc(C(=O)NCc4ccccc4N)cc3)c2N)n1.O=C(O)C(F)(F)F [TCMDC-136658] | > 20 µM | 12.5 µM |  | SLOW |  |  |  | 450 nM |  |  |  |  |  | 1.46 µM | 26.82 µM | -1.42% | 450 nM |  | 
